Source: patent US20100210562A1, “USE OF IL-1 RECEPTOR PEPTIDE, ALONE OR IN COMBINATION WITH D-ALA-GLN-OCTADECYL ESTER, AS A THERAPEUTIC AGENT” (priority 2007, published 2010)
Where no end group is shown, it is not given here.

How the values were obtained:
HIV-1IIIB = conditions: positive controls; MTS readout
HCMV strain AD169 = test: HCMV plaque formation assay in MRC-5 cells; conditions: for inhibition of HCMV plaque formation as compared to the virus control experiment: 10 micrograms per ml, 7-10 days
HUVEC = test: Endothelial tube formation assay; format: cell-based, human; conditions: 10 micrograms per ml; 20 hours; average tubule length
Description: Positive control was vehicle only. […] Raw data were expressed as average tubule lenghs in pixels±standard deviation.

[1] = system: Th1/Th2 cytokine production (IL-2, IL-4, IL-5, IFN-γ, TNF-α) in murine spleen cells; test: Th1/Th2 cytokine profiling assay in ovalbumin-restimulated spleen cells; format: cell-based, Balb/c mice; conditions: 10 micrograms per ml; ovalbumin restimulation; 72 hours
Description: The Balb/c mice (originated in 1923, it is a popular strain and is used in many different research disciplines. Also classified as an inbred from the production of 20 or more successive brother-sister matings, the Balb/c mouse is albino and small in size) were immunized on Days 1, 15, and 29 with Ovalbumin (Ovalbumin is the main protein found in egg white, commonly used to stimulate an immunological reaction in test animals) in PBS (5 micrograms/injection). On day 50, spleens of the mice were harvested (3 weeks after last boost with Ovalbumin). Cells were cultured (2×10^5/well in triplicate) and incubated with culture medium or test peptides—10 micrograms per ml—for 30 min. Thereafter, additional Ovalbumin was added to the cells at 10 micrograms/ml for in vitro restimulation of the cells. 72 hours later, cell supernatants were harvested and assayed using the Becton Dickinson Mouse Th1/Th2 Cytokine CBA Kit.

[2] = system: Primary Human endothelial cells (HUVEC); test: Endothelial cell migration assay; format: cell-based; conditions: 10 micrograms per ml; 22 hours
Description: Thereafter, designated concentration of testing peptides—10 micrograms per ml—was added in duplicate wells.

[3] = system: hepatitis B virus (HBV) ayw strain; test: HBV experimental assay system, secreted HBV DNA by TaqMan PCR in HepG2-2.2.15; format: cell-based; conditions: 10 micrograms per ml; 6 days; HBV DNA in supernatant

Row | Compound | antiviral activity of positive control compounds (HIV-1) (HIV-1IIIB) | antiviral activity of positive control compound (HCMV) (HCMV strain AD169; positive control) | inhibition of the tube formation of human endothelial cells (HUVEC) [%] | change of the production of IL-2 in murine spleen cells [1] | change of the production of IL-4 in murine spleen cells [1] | decrease of the production of IFN-γ in murine spleen cells [1] | decrease of the production of IL-5 in murine spleen cells [1] | decrease of the production of TNF-a in murine spleen cells [1] [%] | inhibition of HCMV plaque formation as compared to the virus control experiment (HCMV strain AD169) | increase of the migration of endothelial cells [2] [%] | inhibition of HBV replication as compared to the virus control infection [3] [%] | inhibition of the migration of human endothelial cells [2] [%]
1 | Cc1cn([C@H]2C[C@H](N=[N+]=[N-])[C@@H](CO)O2)c(=O)[nH]c1=O [AZT] | expected levels of antiviral activity | – | – | – | – | – | – | – | – | – | – | –
2 | Nc1nc(O)c2ncn(COC(CO)CO)c2n1 [Ganciclovir, reference compound] | – | expected levels of antiviral activity | – | – | – | – | – | – | – | – | – | –
3 | D-Ala-Gln-octadecyl ester [Peptide 2] | – | – | 10 | did not significantly change | did not significantly change | 98.1% | 74.2% | 71.3 | 2.9% | 2 | 66.0 | –
4 | Lys-Ile-Cys-Ile-Arg-Ile-Gln-Ile-Ser-OH (KICIRIQIS-OH) [Peptide 1] | – | – | 12 | did not significantly change | did not significantly change | did not significantly change | did not significantly change | 97 | did not inhibit | – | 41.0 | 32
5 | CC(C)(C)NC(=O)[C@@H]1CN(Cc2cccnc2)CCN1C[C@@H](O)C[C@@H](Cc1ccccc1)C(=O)N[C@H]1c2ccccc2C[C@H]1O [indinavir] | expected levels of antiviral activity | – | – | – | – | – | – | – | – | – | – | –
